Reference: BigSolDB 2.1

C[C@H]1[C@H](C)CC[C@]2(C(=O)O[C@@H]3O[C@H](CO[C@@H]4O[C@H](CO)[C@@H](O[C@@H]5O[C@@H](C)[C@H](O)[C@@H](O)[C@H]5O)[C@H](O)[C@H]4O)[C@@H](O)[C@H](O)[C@H]3O)CC[C@]3(C)C(=CC[C@@H]4[C@@]5(C)C[C@@H](O)[C@H](O)[C@@](C)(CO)[C@@H]5CC[C@]43C)[C@H]12
solubility (mole fraction)
Conditions | in ethanol | in methanol | in n-butanol | in n-propanol | in water
278.15 K | – | 0.000902 | – | – | –
283.15 K | – | 0.000904 | – | – | –
288.15 K | – | 0.000973 | – | – | –
293.15 K | – | 0.00103 | – | – | –
298.15 K | 0.00014 | 0.00113 | 2.44e-05 | 5.2e-05 | 1.9e-06
303.15 K | 0.000142 | 0.00122 | 2.93e-05 | 6.06e-05 | 2.1e-06
308.15 K | 0.000146 | 0.00139 | 3.45e-05 | 6.78e-05 | 2.5e-06
313.15 K | 0.000152 | 0.0016 | 4.22e-05 | 8.06e-05 | 3.1e-06
318.15 K | 0.000165 | 0.00182 | 5.1e-05 | 9.61e-05 | 4.2e-06
323.15 K | 0.000176 | 0.00216 | 6.36e-05 | 0.000119 | 5.4e-06
328.15 K | 0.000195 | 0.00253 | 8.03e-05 | 0.000144 | 7.1e-06
333.15 K | 0.000217 | – | 0.000101 | 0.000181 | 1.02e-05
338.15 K | – | – | 0.000132 | 0.00023 | –
343.15 K | – | – | 0.000175 | 0.000304 | –
